Experimental data published in US20080242594A1, “Methods for Promoting Stem Cell Proliferation and Survival” (priority 2005, published 2008).
Entries after “also recorded” stand apart in the source; their conditions may differ.

Tests used:
STAT3 = STAT3 phosphorylation (Ser727, Tyr705) immunoblot in CNS stem cells; type: cell-based, mouse; conditions: for effect on STAT3-Ser727 phosphorylation following Notch activation: Notch ligand treated CNS stem cells
Description: Ligands that activate JAK/STAT signaling promote astrocytic differentiation of CNS stem cells (Johe et al., Genes Dev 10:3129-40, 1996; Raj an et al., J Neurosci 18:3620-9, 1998; Bonni et al., Science 278:477-83, 1997; Song et al., Nat Neurosci 7:229-35, 2004; He et al., Nat Neurosci 8:616-625, 2005). When applying CNTF to CNS stem cells it was noted that low concentrations of CNTF stimulated survival but not expression of astrocyte specific genes. This is consistent with previous observations of Akt phosphorylation downstream of gp130 activation (Taga et al., Annu Rev Immunol 15:797-819, 1997). […] At high concentrations (20 ng/ml) the phosphorylation of Tyr705 can be blocked by an inhibitor of JAK while allowing a CNTF-induced increase in Ser727 phosphorylation (FIG. 2B) (Thompson et al., Bioorg Med Chem Lett 12:1219-23, 2002).
CNTF was used as a positive control; CNTF, induced the phosphorylation on both sites. With both CNTF and Notch activation, phosphorylation peaked at around 30 min. STAT3 phosphorylation on Ser727 following Notch activation was sensitive to the γ-secretase inhibitor DAPT (FIG. 2e). […] In contrast to CNTF, no Tyr705 phosphorylation was detected at any of the doses of Notch receptor ligands.
It was determined that insulin also maintains phosphorylation of serine 727 in STAT3 in foetal neural stem cell cultures.

Notch1 = assay: Notch activation (Notch1IC / Notch ICD) immunocytochemical detection; type: cell-based, mouse; conditions: Notch ligands 1 hour
Description: Antibodies were used that specifically bind: Notch1IC (Chemicon, 5352), GFP (Molecular Probes, A11122), Oct3/4 (Santa Cruz, sc-5279), SSEA1 and SSEA4 (Developmental Studies HybridomaBank), Tra-1-60 (Chemicon, MAB4360), Tra-1-81 (Chemicon, MAB4381), human nestin (Chemicon, MAB5326), Sox-1 (Gift from Dr. R Lovell-Badge), TH (Pel-Freez, P40101-0), Tuj1 (Covance, MMS-435P), rat nestin (McKay Lab), GFAP (Dako, z0334), CNPase (Chemicon, MAB326), BrdU (Accurate, H5903), DCX (Santa Cruz, sc-8066), Sox2 (R&D, MAB2018), Hu (Molecular Probes, A21271).
To assay for Notch activation, cultures were treated with the Notch ligands for 1 hour and Notch1 activation was detected by immunocytochemical staining of Notch1IC (FIG. 1b).
It was determined that insulin facilitates Notch cleavage using immunocytochemical detection.

Hes3 = Hes3 expression (RT-PCR, immunohistochemistry) in CNS stem cells; type: cell-based, mouse; conditions: for effect on Jagged-induced Hes3 mRNA induction: CNTF at high concentrations (>1 ng/ml)
Method: RT-PCR: For reverse-transcriptase PCR analysis, RNA was extracted from cell cultures or brain homogenates with Trizol (Invitrogen, 15596-026), and PCR reactions were performed with the ProSTAR First-Strand RT-PCR Kit (Stratagene, 200420). Primers were used for the following genes: Hes1, Hes2, Hes3, Hes5, Hes6, Hey2; Hes7
Notch signaling regulates transcription of the Hes/Hey gene family, a group of genes implicated in the control of differentiation (Iso et al., J Cell Physiol 194:237-55, 2003). RT-PCR was used to assess mRNA regulation of these genes one hour after Notch activation in CNS stem cells. […] The ability of high concentrations of CNTF to inhibit Hes3 induction following Notch activation was dependent on JAK activity (FIG. 4e). In contrast, in the absence of added Notch ligand, Hes3 mRNA levels were elevated by high CNTF and the JAK inhibitor (FIG. 4e).
Conversely, treatment with ciliary neurotrophic factor (CNTF), a cytokine that opposes the signal transduction pathway downstream of Notch activation opposed the ability of D114 to induce Hes3 transcription. Immunohistochemical experiments were performed that documented D114, CNTF regulate Hes3 expression. Thus, at the protein expression level, D114 maintains and CNTF inhibits Hes3 expression.

[1] = test system: E13.5 cortical embryonic mouse CNS stem cells; assay: CNS stem cell plating efficiency / colony formation / survival; type: cell-based; conditions: 5 days, versus FGF2 control; CNTF low 0.01, 0.1 ng/ml or high 20 ng/ml with JAK inhibitor
Method: Cell culture: E13.5 cortical embryonic mouse and adult rat subventricular zone CNS stem cells were grown as previously described (Johe et al., Genes Dev 10:3129-40, 1996; Rajan et al., J Neurosci 18:3620-9, 1998). Cells were expanded in serum-free DMEM/F12 medium with N2 supplement with FGF2 (20 ng/ml) for 5 days and were re-plated at 1000-10,000 cells per cm^2. FGF2 was included throughout our experiments, unless otherwise stated.
To explore these paradoxical observations, CNS stem cell cultures from mid-gestation (embryonic day 13.5) mouse dorsal telencephalon were treated with soluble Notch ligands. […] Following initial passaging, the cells were plated at a density of 1000 cells/cm^2, cultured for 5 days in the presence of FGF2, and colony numbers, sizes, and BrdU incorporation (after a 4 hour BrdU pulse) were enumerated. Notch activation by Jagged-1 or Delta-4 (200 ng/ml) increased the number of colonies generated in vitro by over 3-fold (FIG. 1a). […] The effects of Notch activation were most dramatic when treatments were initiated at the start of the culture.
Insulin in the medium is also thought to promote cell survival. […] Seeding cells in the absence of insulin caused the plating efficiency measured at five days to drop to 29.9%±37.9 (FIG. 1e). Delta-4 was able to compensate for the lack of insulin in the medium, and restored plating efficiency (125%±19.4). Because Notch activation improved survival, activation of Akt, a ser/threonine kinase known to be involved in cell survival, was assayed. Notch activation rapidly (5 minutes) promoted the phosphorylation of Akt on Ser473 and […] in both the presence and absence of insulin (FIG. 1f).

HSF6 hES cells = assay: hES single cell plating efficiency, HSF-6; type: cell-based, human; conditions: one week treatment
Description: The human ES cell lines HSF-6 (University of California, San Francisco; NIH # UC06, Passage 38-120) and H1 and H9 (WiCell Research Institute, NIH # WA01 and […]) were maintained on mouse embryonic fibroblasts (MEF) according to the suppliers' protocols. Immunocytochemistry and FACS analysis for the expression of Oct4 and SSEA4 and SKY karyotyping established that the starting cells are undifferentiated and have a normal set of chromosomes. For single cell survival experiments, hES colonies were harvested after treatment with 1.5 mg/ml collagenase type IV (Invitrogen), separated from the MEF feeder cells by repeated washing by gravity, gently triturated to break up colonies into small aggregates, further dissociated into a single cell solution by trypsination (0.05% trypsin/0.04% EDTA) and transferred on MEF feeder cells at a density of 10000 cells/ml. Oct-4 positive colonies were counted six days after plating. […]
The pro-survival effects of activation of Notch and inhibition of JAK was tested on HSF-6 (NIH code UC06, http://escell.ucsf.edu), H1 (NIH code WA01, www.wicell.org) and H9 (NIH code WA09, www.wicell.org) hES cells. Singly dissociated hES cells were plated on mouse embryo fibroblasts (MEFs), treated daily for one week and colony numbers counted. […]

mES (D3) cells = assay: mES cell plating efficiency, Oct4 and STAT3 phosphorylation in the presence of LIF; type: cell-based, mouse
Description: FIGS. 10a-10c are a set of images showing JAK inhibition reduces the phosphorylation of STAT3 on Ser727 in mES cell cultures. […] Very low levels of phosphorylated p38 were detectable under all conditions. […] Self-renewal of mES cells correlated with Ser727 phosphorylation.
mES (D3) cells were obtained from ATCC and were maintained in feeder-free cultures on gelatin-coated plates supplemented with 1400 units/ml LIF.
There is great interest in conditions that support the growth of mouse and human ES cells. In contrast to CNS SC (FIG. 2, FIG. 3) and hES SC (se below), the growth of undifferentiated mouse ES cells depends on the stimulation of the JAK/STAT pathway and STAT3 phosphorylation on Tyr705 has been specifically shown to be essential for self-renewal of mouse ES cells (Niwa et al., Genes Dev 12:2048-60, 1998; Matsuda et al., Embo J 18:4261-9, 1999). Ligands that stimulate the JAK/STAT pathway cause human ES cells to differentiate (Daheron et al., Stem Cells 22:770-8, 2004; Humphrey et al., Stem Cells 22:522-30, 2004). It was determined if the Notch/sSTAT survival pathway is present in mouse or human ES cells.

[2] = test system: p38, SMAD1/5/8, MSK-1, STAT3 phosphorylation in hES cells; assay: Signalling immunoblots in hES cells
Method: Immunoblotting: Immunoblotting was performed as previously described (Panchision et al., Genes Dev 15:2094-110, 2001). The following antibodies were used in the experiments described below: pSer473-Akt (92715), pSer308-Akt (9275), pSer2448-mTOR (29715), pThr180/Tyr182-p38 (9211), pSMAD1/5/8 (9511) from Cell Signaling; STAT3 (482), pSer727-STAT3 (8001-R), pTyr705-STAT3 (7993) from Santa Cruz; Sonic Hedgehog (R&D, AF464), nucleostemin (McKay Lab), Hes3 (Chemicon, AB5706), α-tubulin (Sigma, T-6074).
To determine whether in the hES system JAK inhibition reduced p38 activity, cells were treated in the absence of MEF with JAK inhibitor for different times and assayed for p38 phosphorylation.

nucleostemin, SHH = assay: Nucleostemin and SHH protein expression in CNS stem cells; type: cell-based, mouse
Description: The interest in stem cell self-renewal mechanisms prompted analysis of potential down-stream components of the Notch/STAT3-Ser727 (Notch/sSTAT) pathway. Nucleostemin is a p53-binding protein expressed in self-renewing CNS stem cells and cancer cells (Tsai et al., J Neurosci 20:3725-35, 2000; Tsai et al., J Cell Biol 168:179-84, 2005). Sonic Hedgehog (SHH) is a protein with functions in fate specification and stem cell survival in the fetal and adult CNS (Palma et al., Development 132:335-44, 2005).
There are two forms of mRNA encoded by the Hes3 gene, Hes3a and Hes3b.

Molecule: C[C@H](NC(=O)Cc1cc(F)cc(F)c1)C(=O)N[C@H](C(=O)OC(C)(C)C)c1ccccc1 [DAPT, reference compound]
- basal levels of pSer727 (STAT3): reduced the basal levels of pSer727
- effect on STAT3-Ser727 phosphorylation following Notch activation (STAT3): blocked
- accumulation of Notch1IC (Notch1): blocks the accumulation of Notch1IC
- effect on Jagged-induced Hes3 mRNA induction (Hes3): inhibited Hes3 induction by Jagged1

Molecule: COc1ccc(S(=O)(=O)Nc2ccccc2CN(C)C/C=C/c2ccc(Cl)cc2)cc1 [KN92, reference compound]
- effect on STAT3-Ser727 phosphorylation following Notch activation (STAT3): no effect

Molecule: CN(C)S(=O)(=O)c1ccc2c(c1)/C(=C/c1cc3c([nH]1)CCCC3)C(=O)N2 [SU6656, reference compound]
- effect on STAT3-Ser727 phosphorylation following Notch activation (STAT3): blocked

Molecule: C[S+]([O-])c1ccc(-c2nc(-c3ccc(F)cc3)c(-c3ccncc3)[nH]2)cc1 (stereo not drawn) [p38 inhibitor, 4-(4-Fluorophenyl)-2-(4-methylsulfinylphenyl)-5-(4-pyridyl)1H-imidazole]
- CNS stem cell survival / plating efficiency [1]: enhanced survival to a similar extent to the JAK inhibitor
- human ES cell survival (HSF6 hES cells): stimulated human ES cell survival
- Oct4 expression (mES (D3) cells; five day treatments in the presence of LIF): did not affect Oct4 expression
- cell survival in a plating efficiency assay (mES (D3) cells; in the presence of LIF): did not significantly alter cell survival
- STAT3 phosphorylation on Ser727 [2]: stimulated STAT3 phosphorylation on Ser727
- phosphorylation of MSK-1 kinase [2]: reduced the phosphorylation of MSK-1 kinase
- phosphorylation of SMAD 1/5/8 [2]: reduced in a time-dependent manner

B1: CNTF: cilliary neurotrophic factor, CNTF (577-NT) from R&D (protein, UniProt P26441 1-200, looked up)
Ciliary neurotrophic factor: MAFTEHSPLTPHRRDLCSRSIWLARKIRSDLTALTESYVKHQGLNKNINLDSADGMPVASTDQWSELTEAERLQENLQAYRTFHVLLARLLEDQQVHFTPTEGDFHQAIHTLLLQVAAFAYQIEELMILLEYKIPRNEADGMPINVGDGGLFEKKLWGLKVLQELSQWTVRSIHDLRFISSHQTGIPARGSHYIANNKKM
- CNS stem cell survival / plating efficiency [1]: increased survival; also recorded: support CNS stem cell survival
- time of peak STAT3 phosphorylation (STAT3): around 30 min
- concentration at which phosphorylation of STAT3 on Tyr705 occurs (STAT3; dose response, 30 minutes): > 1 ng/mL
- concentration inducing phosphorylation of STAT3 on Ser727 (STAT3; dose response, 30 minutes): < 0.5 ng/mL
- nucleostemin and SHH protein expression (nucleostemin, SHH): Nucleostemin levels were also increased
- Hes3 mRNA levels (Hes3; CNTF 20 ng/ml): did not induce Hes3 mRNA
- effect on Jagged-induced Hes3 mRNA induction (Hes3): inhibited Hes3 induction by Jagged1
- Hes3 expression at the protein expression level (Hes3; immunohistochemical): inhibits
